From paper PMC11672637, “7-O-Carboxylic Acid-Substituted 3-O-Alkyl Difluoroquercetin; An Aztreonam-Potentiating Agent Against Carbapenemase-Producing Pseudomonas aeruginosa Through Simultaneous Inhibition of Metallo-β-Lactamase and Efflux Pump” (Antibiotics, 2024)
≈ marks a conversion by molar mass, not a printed value. Like-named read-outs stand apart in the source and are kept apart here.

Legend:
[1] = system: ATM-Resistant CPPA (n = 15); assay: MIC distribution over clinical isolates; assay type: cell-based, P. aeruginosa; conditions: Pseudomonas aeruginosa; for inhibition at 16 µg/mL: read-out: Cumulative % inhibition by ATM, 5 at 16 mg/L; for inhibition at 32 µg/mL: read-out: Cumulative % inhibition by ATM, 5 at 32 mg/L; for inhibition at 64 µg/mL: read-out: Cumulative % inhibition by ATM, 5 at 64 mg/L
[2] = system: wild-type P. aeruginosa (ATCC 27853); assay: Time–kill assay; assay type: cell-based; conditions: for Log CFU/mL, ATM + 5: 24 h
Experimental: (§1) Aliquots (50 μL) were taken from the incubation mixture at regular time intervals (t = 0, 3, 6, and 24 h), serially diluted in 0.85% NaCl solution, and plated on BAP. Bacterial colonies were counted, and the data are presented as the means of at least three independent experiments.

[3] = system: PA-002, blaIMP; assay: Time–kill assay; assay type: cell-based, P. aeruginosa; conditions: ATM 1/2 MIC + 5 at 8 mg/L
Experimental: as §1

Work on CC(C)(C)CCOc1c(-c2ccc(F)c(F)c2)oc2cc(OCC(=O)O)cc(O)c2c1=O [Compound 5, 2-((2-(3,4-Difluorophenyl)-3-(3,3-dimethylbutoxy)-5-hydroxy-4-oxo-4H-chromen-7-yl)oxy)acetic Acid] yielded an inhibition at 16 µg/mL ([1]; ATM 1 mg/L) of 0%, an inhibition at 16 µg/mL ([1]; ATM 2 mg/L) of 13% and an inhibition at 16 µg/mL ([1]; ATM 4 mg/L) of 67%. It also gave an inhibition at 16 µg/mL ([1]; ATM 8 mg/L) of 93%, an inhibition at 16 µg/mL ([1]; ATM 16 mg/L) of 100% and an inhibition at 16 µg/mL ([1]; ATM 32 mg/L) of 100%. The inhibition at 16 µg/mL ([1]; ATM 64 mg/L) was 100%, the inhibition at 32 µg/mL ([1]; ATM 0.5 mg/L) was 0% and the inhibition at 32 µg/mL ([1]; ATM 1 mg/L) was 0%. For the same compound, the inhibition at 32 µg/mL ([1]; ATM 2 mg/L) was 20%, the inhibition at 32 µg/mL ([1]; ATM 4 mg/L) was 80% and the inhibition at 32 µg/mL ([1]; ATM 8 mg/L) was 93%. It also gave an inhibition at 32 µg/mL ([1]; ATM 16 mg/L) of 100%, an inhibition at 32 µg/mL ([1]; ATM 32 mg/L) of 100% and an inhibition at 32 µg/mL ([1]; ATM 64 mg/L) of 100%. The inhibition at 64 µg/mL ([1]; ATM 0.5 mg/L) was 0%, the inhibition at 64 µg/mL ([1]; ATM 1 mg/L) was 7% and the inhibition at 64 µg/mL ([1]; ATM 2 mg/L) was 27%. The inhibition at 64 µg/mL ([1]; ATM 4 mg/L) was 87%, the inhibition at 64 µg/mL ([1]; ATM 8 mg/L) was 93% and the inhibition at 64 µg/mL ([1]; ATM 16 mg/L) was 100%. It also gave an inhibition at 64 µg/mL ([1]; ATM 32 mg/L) of 100%, an inhibition at 64 µg/mL ([1]; ATM 64 mg/L) of 100% and an MIC50 ([1]; read-out: MIC50 of ATM, 5 at 1 mg/L) of 16 µg/mL (≈ 35.7 µM). For the same compound, the MIC50 ([1]; read-out: MIC50 of ATM, 5 at 2 mg/L) was 16 µg/mL (≈ 35.7 µM), the MIC50 ([1]; read-out: MIC50 of ATM, 5 at 4 mg/L) was 8 µg/mL (≈ 17.8 µM) and the MIC50 ([1]; read-out: MIC50 of ATM, 5 at 8 mg/L) was 8 µg/mL (≈ 17.8 µM). It also gave an MIC50 ([1]; read-out: MIC50 of ATM, 5 at 16 mg/L) of 4 µg/mL (≈ 8.92 µM), an MIC50 ([1]; read-out: MIC50 of ATM, 5 at 32 mg/L) of 4 µg/mL (≈ 8.92 µM) and an MIC50 ([1]; read-out: MIC50 of ATM, 5 at 64 mg/L) of 4 µg/mL (≈ 8.92 µM). The MIC90 ([1]; read-out: MIC90 of ATM, 5 at 1 mg/L) was 32 µg/mL (≈ 71.4 µM), the MIC90 ([1]; read-out: MIC90 of ATM, 5 at 2 mg/L) was 32 µg/mL (≈ 71.4 µM) and the MIC90 ([1]; read-out: MIC90 of ATM, 5 at 4 mg/L) was 16 µg/mL (≈ 35.7 µM). The MIC90 ([1]; read-out: MIC90 of ATM, 5 at 8 mg/L) was 16 µg/mL (≈ 35.7 µM), the MIC90 ([1]; read-out: MIC90 of ATM, 5 at 16 mg/L) was 16 µg/mL (≈ 35.7 µM) and the MIC90 ([1]; read-out: MIC90 of ATM, 5 at 32 mg/L) was 16 µg/mL (≈ 35.7 µM). The MIC90 ([1]; read-out: MIC90 of ATM, 5 at 64 mg/L) was 16 µg/mL (≈ 35.7 µM), the “Diff. (ATM + 5, 24 h vs initial inoculum)” value ([2]; ATM 1/2 MIC + 5 at 8 mg/L) was −0.04 Log CFU/mL and the “Diff. (ATM + 5 vs ATM only)” value ([2]; ATM 1/2 MIC + 5 at 8 mg/L) was −3.51 Log CFU/mL. The “Synergistic activity, interpretation” value ([2]; ATM 1/2 MIC + 5 at 8 mg/L) was “Synergy (a ≥ 2 log10 decrease in CFU/mL for the combination of ATM and 5 compared to ATM alone after 24 h of incubation)”, the “Log CFU/mL, ATM + 5” value ([2]; ATM 1/2 MIC + 5 at 8 mg/L) was 5.80 Log CFU/mL and the “Diff. (ATM + 5, 24 h vs initial inoculum)” value ([2]; ATM 1/4 MIC + 5 at 8 mg/L) was −0.04 Log CFU/mL. For the same compound, the “Diff. (ATM + 5 vs ATM only)” value ([2]; ATM 1/4 MIC + 5 at 8 mg/L) was −3.77 Log CFU/mL, the “Synergistic activity, interpretation” value ([2]; ATM 1/4 MIC + 5 at 8 mg/L) was “Synergy (a ≥ 2 log10 decrease in CFU/mL for the combination of ATM and 5 compared to ATM alone after 24 h of incubation)” and the “Log CFU/mL, ATM + 5” value ([2]; ATM 1/4 MIC + 5 at 8 mg/L) was 5.80 Log CFU/mL. For the same compound, the “Diff. (ATM + 5, 24 h vs initial inoculum)” value ([2]; ATM 1 MIC + 5 at 8 mg/L) was −5.57 Log CFU/mL, the “Diff. (ATM + 5 vs ATM only)” value ([2]; ATM 1 MIC + 5 at 8 mg/L) was −7.75 Log CFU/mL and the “Synergistic activity, interpretation” value ([2]; ATM 1 MIC + 5 at 8 mg/L) was “Synergy (a ≥ 2 log10 decrease in CFU/mL for the combination of ATM and 5 compared to ATM alone after 24 h of incubation)”. For the same compound, the “Log CFU/mL, ATM + 5” value ([2]; ATM 1 MIC + 5 at 8 mg/L) was 0.27 Log CFU/mL, the “Diff. (ATM + 5, 24 h vs initial inoculum)” value ([2]; ATM 2 MIC + 5 at 8 mg/L) was −5.84 Log CFU/mL and the “Diff. (ATM + 5 vs ATM only)” value ([2]; ATM 2 MIC + 5 at 8 mg/L) was −0.17 Log CFU/mL. For the same compound, the “Log CFU/mL, ATM + 5” value ([2]; ATM 2 MIC + 5 at 8 mg/L) was 0.00 Log CFU/mL, the “Diff. (ATM + 5, 24 h vs initial inoculum)” value [3] was 1.21 Log CFU/mL and the “Diff. (ATM + 5 vs ATM only)” value [3] was −2.36 Log CFU/mL. For the same compound, the “Synergistic activity, interpretation” value [3] was “Synergy (a ≥ 2 log10 decrease in CFU/mL for the combination of ATM and 5 compared to ATM alone after 24 h of incubation)”.
